In patent publication US20200031785A1, “METHODS FOR TREATING CHRONIC PAIN AND OPIOID DEPENDENCE USING ADENYLYL CYCLASE INHIBITORS” (Purdue Research Foundation, priority 2017, published 2020):

Assays:
hAC1 = target: T1, hAC1 (Homo sapiens, UniProt Q08828); assay: Cyclic AMP accumulation in HEK cells stably expressing AC1, stimulated with A23187 (HTRF); type: cell-based; conditions: HEK-AC1 cells; for inhibition at 30 µM: HEK293; for IC50: read-out: HEK-AC1 IC50
T1 construct: expressed in transfected cells
Method: The development and mechanistic characterization of AC1-selective small molecule inhibitors is believed to provide novel non-opioid weapons in the war on chronic pain. We identified our initial hits via screening 10,000 selected compounds from the Life Chemicals collection. The screen was carried out using HEK cells stably expressing AC1 (HEK-AC1) and cyclic AMP accumulation was stimulated using the Ca^2+ ionophore, A23187 to selectively activate AC1. Compounds with potential chemical liabilities and PAINs were removed from further evaluation (Baell and Holloway, J. Med. Chem. 2010, 53, 2719-2740).
(§1) Fresh powders of several robust inhibitors (>90% inhibition) were evaluated in multiple confirmation assays assessing the dose response relationship for inhibiting AC1 and AC8 activity. Confirmation assays used A23817 to selectively stimulate recombinant AC1 or AC8 in the HEK cell background (Cumbay and Watts (2001), J. Pharmacol Exp Ther 297:1201-1399). This approach takes advantage of one unique regulatory property of AC1 for the development of selective inhibitors. Both AC1 and AC8 are robustly activated by Ca^2+/CaM under a variety of conditions, whereas the effects of Ca^2+/CaM on AC3 are modest and conditional requiring activation by G proteins. Previous studies have identified unique Ca^2+/CaM binding domains as one possible site of interaction to achieve AC1 (vs. AC8) selectivity (Masada et al., 2012, Biochemistry 51:7917-7929).
(§2) The primary technology we employed to measure cAMP accumulation was a homogenous time-resolved fluorescence (HTRF) assay, the same technology utilized in the primary screen. […] This could be due to either 1) the chemical scaffolds are exquisitely selective toward the AC family of enzymes or 2) the library has not been screened against a sufficient number of targets. The answer is likely a combination of the two; nonetheless, the lack of biological data to date bodes well for these series and any potential off-target promiscuity.
(§3) Human embryonic kidney (HEK) cells stably expressing AC1, AC8, or AC1 with the MOR were cultured in Dulbecco's Modified Eagle Medium (Life Technologies, Grand Island, N.Y.) supplemented with 5% bovine calf serum (Hyclone, Logan, Utah), 5% fetal clone I (Hyclone), Antibiotic-Antimycotic (Life Technologies), and G418 (Invivogen, San Diego, Calif.) (HEK-AC1), or hygromycin B (Fisher Scientific, Pittsburgh, Pa.) (HEK-AC8), or G418 and puromycin (Sigma-Aldrich) (HEK-AC1/MOR). Chinese hamster ovary (CHO) cells expressing the MOR (CHO-MOR) in the PathHunter® β-Arrestin GPCR assay platform were purchased from DiscoveRx (Freemont, Calif.). Cells were grown in Ham's F12 media supplemented with 1 mM L-glutamine (Thermo Scientific, West Palm Beach, Fla.), 10% fetal bovine serum (Hyclone), 50 U/ml penicillin, 50 μg/ml streptomycin (Life Technologies), G418 and hygromycin B. Cells were grown and frozen as previously described (J. M. Conley, et al., J Vis Exp, e51218 (2014)).
(§4) Cyclic AMP accumulation was measured as previously described (Brust, et al., J. Pharmacol. Exp. Ther. 352, 480-493(2015)). Briefly, cryopreserved cells were thawed, resuspended in optiMEM (Life Technologies), and plated in white, flat bottom, low-volume, tissue culture-treated 384 well plates (PerkinElmer, Shelton, Conn.). Plates with cells were incubated in a 37° C. humidified incubator for 1 h. Inhibitors were added and plates were incubated at room temperature for 30 min followed by the addition of AC stimulants in the presence of 500 μM IBMX. Cells were incubated at room temperature for 1 h and cAMP accumulation was measured using Cisbio's cAMP kit (Cisbio Bioassays, Bedford, Mass.) according to the manufacturer's instructions.

hAC8 = target: T2, hAC8 (Homo sapiens, UniProt P40145); assay: Cyclic AMP accumulation in HEK cells stably expressing AC8, stimulated with A23187 (HTRF); type: cell-based; conditions: HEK-AC8 cells; for inhibition at 30 µM: HEK293; for IC50: read-out: HEK-AC8 IC50
T2 construct: expressed in transfected cells
Method: as §1, §2, §3, §4

T2 sequence (P40145 whole entry): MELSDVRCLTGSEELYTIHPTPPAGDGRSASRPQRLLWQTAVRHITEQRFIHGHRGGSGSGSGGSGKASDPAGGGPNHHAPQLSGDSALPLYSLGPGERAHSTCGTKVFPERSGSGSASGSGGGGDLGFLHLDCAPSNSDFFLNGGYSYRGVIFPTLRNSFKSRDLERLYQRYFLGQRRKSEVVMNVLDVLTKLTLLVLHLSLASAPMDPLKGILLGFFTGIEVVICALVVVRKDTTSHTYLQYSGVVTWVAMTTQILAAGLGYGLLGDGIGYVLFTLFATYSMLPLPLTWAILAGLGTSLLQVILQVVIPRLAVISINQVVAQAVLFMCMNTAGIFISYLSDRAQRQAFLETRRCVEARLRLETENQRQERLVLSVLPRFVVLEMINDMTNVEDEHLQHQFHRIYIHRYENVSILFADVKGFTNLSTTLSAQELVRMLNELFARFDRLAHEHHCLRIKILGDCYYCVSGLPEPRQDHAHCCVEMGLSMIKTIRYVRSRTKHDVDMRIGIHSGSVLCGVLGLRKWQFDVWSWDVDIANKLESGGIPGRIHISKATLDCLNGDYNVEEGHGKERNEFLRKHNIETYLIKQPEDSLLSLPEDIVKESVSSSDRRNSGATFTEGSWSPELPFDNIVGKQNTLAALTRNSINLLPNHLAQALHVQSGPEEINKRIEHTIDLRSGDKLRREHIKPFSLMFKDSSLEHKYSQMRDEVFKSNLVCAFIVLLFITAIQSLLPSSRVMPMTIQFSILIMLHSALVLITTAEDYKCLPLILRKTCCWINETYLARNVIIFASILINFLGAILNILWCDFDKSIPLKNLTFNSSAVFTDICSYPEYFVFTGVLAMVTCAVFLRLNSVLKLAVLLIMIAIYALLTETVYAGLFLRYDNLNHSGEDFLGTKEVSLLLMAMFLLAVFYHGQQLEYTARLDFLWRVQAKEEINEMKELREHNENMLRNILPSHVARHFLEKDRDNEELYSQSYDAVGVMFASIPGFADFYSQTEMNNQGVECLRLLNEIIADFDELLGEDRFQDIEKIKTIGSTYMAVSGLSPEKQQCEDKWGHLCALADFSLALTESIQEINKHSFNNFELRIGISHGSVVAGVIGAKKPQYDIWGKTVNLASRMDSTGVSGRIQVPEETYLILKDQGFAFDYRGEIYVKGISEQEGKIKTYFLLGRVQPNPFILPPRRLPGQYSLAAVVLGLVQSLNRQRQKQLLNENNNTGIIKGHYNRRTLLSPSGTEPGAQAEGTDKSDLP
T1 sequence (Q08828 whole entry): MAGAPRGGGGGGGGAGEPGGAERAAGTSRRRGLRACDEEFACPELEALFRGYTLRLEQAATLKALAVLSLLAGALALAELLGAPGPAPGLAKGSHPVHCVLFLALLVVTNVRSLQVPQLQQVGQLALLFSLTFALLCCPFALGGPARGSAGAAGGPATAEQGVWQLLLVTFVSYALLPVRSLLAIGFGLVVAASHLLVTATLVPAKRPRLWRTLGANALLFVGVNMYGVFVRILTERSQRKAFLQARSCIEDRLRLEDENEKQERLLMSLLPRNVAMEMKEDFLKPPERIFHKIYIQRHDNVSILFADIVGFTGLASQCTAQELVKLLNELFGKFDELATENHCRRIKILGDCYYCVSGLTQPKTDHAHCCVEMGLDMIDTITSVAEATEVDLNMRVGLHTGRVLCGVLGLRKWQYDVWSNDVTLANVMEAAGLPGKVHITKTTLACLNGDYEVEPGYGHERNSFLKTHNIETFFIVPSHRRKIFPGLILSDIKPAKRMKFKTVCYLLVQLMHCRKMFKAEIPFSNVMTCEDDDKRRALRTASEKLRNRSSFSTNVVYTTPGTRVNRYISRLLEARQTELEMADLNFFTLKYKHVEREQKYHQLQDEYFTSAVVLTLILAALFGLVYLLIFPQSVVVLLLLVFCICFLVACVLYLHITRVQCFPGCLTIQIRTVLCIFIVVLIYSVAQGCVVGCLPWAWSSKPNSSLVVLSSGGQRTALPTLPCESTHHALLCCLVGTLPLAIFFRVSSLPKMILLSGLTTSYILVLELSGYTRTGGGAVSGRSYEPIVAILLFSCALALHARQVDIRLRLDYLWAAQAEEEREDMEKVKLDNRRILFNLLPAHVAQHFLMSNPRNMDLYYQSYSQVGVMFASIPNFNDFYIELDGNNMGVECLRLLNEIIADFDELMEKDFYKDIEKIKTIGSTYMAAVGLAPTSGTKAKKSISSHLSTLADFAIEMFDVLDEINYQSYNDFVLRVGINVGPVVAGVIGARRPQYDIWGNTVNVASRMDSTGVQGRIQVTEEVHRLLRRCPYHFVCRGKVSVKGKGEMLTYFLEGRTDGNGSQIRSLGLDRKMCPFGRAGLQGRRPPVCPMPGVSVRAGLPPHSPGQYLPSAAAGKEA

| Compound | inhibition at 30 µM (hAC1) [%] | IC50 (hAC1) [µM] | inhibition at 30 µM (hAC8) [%] | IC50 (hAC8) [µM] |
| --- | --- | --- | --- | --- |
| O=C(Nc1nnc(-c2ccc3c(c2)OCCO3)o1)c1ccccc1 [AC10001, N-(5-(2,3-dihydrobenzo[b][1,4]dioxin-6-yl)-1,3,4-oxadiazol-2-yl)benzamide] | 60 ± 3 | 31 ± 3 | 24 ± 7 | 102 ± 26 |
| O=C(Nc1nnc(-c2ccc3c(c2)CCCC3)o1)c1ccccc1 [AC10002, N-(5-(5,6,7,8-tetrahydronaphthalen-2-yl)-1,3,4-oxadiazol-2-yl)benzamide] | 100 ± 1 | 3.4 ± 1 | 80 ± 6 | 19.1 ± 5 |
| O=C(Nc1nnc(C2CCCCC2)o1)c1ccccc1 [AC10003, N-(5-cyclohexyl-1,3,4-oxadiazol-2-yl)benzamide] | 65 ± 4 | 24.5 ± 2 | 3 ± 6 | – |
| O=C(Nc1nnc(-c2ccc(F)cc2)o1)c1ccccc1 [AC10004, N-(5-(4-fluorophenyl)-1,3,4-oxadiazol-2-yl)benzamide] | 65 ± 8 | 29 ± 10 | 8 ± 2 | – |
| O=C(Nc1nnc(-c2ccc3c(c2)CCCC3)o1)c1ccc(Br)cc1 [AC10005, 4-bromo-N-(5-(5,6,7,8-tetrahydronaphthalen-2-yl)-1,3,4-oxadiazol-2-yl)benzamide] | 74 ± 4 | 12.2 ± 3 | 64 ± 13 | 27 ± 8 |
| O=C(Nc1nnc(-c2cccs2)o1)c1ccccc1 [AC10006, N-(5-(thiophen-2-yl)-1,3,4-oxadiazol-2-yl)benzamide] | 56 ± 5 | 29 ± 3 | 18 ± 2 | 101 ± 3 |
| O=C(Nc1nnc(C2CCCCC2)o1)c1ccc(Br)cc1 [AC10007, 4-bromo-N-(5-cyclohexyl-1,3,4-oxadiazol-2-yl)benzamide] | 82 ± 7 | 8.6 ± 3 | 71 ± 11 | 25 ± 8 |
| O=C(Nc1nnc(-c2ccc(F)cc2)o1)c1ccc(Br)cc1 [AC10008, 4-bromo-N-(5-(4-fluorophenyl)-1,3,4-oxadiazol-2-yl)benzamide] | 78 ± 3 | 10 ± 1 | 33 ± 3 | 71 ± 18 |
| O=C(Nc1nnc(-c2cccs2)o1)c1ccc(Br)cc1 [AC10009, 4-Bromo-N-(5-(thiophen-2-yl)-1,3,4-oxadiazol-2-yl)benzamide] | 81 ± 1 | 7.7 ± 1 | 41 ± 9 | 55 ± 20 |
| CC(C)Oc1ccc(C(=O)Nc2nnc(-c3ccc4c(c3)CCCC4)o2)cc1 [AC10010, 4-isopropoxy-N-(5-(5,6,7,8-tetrahydronaphthalen-2-yl)-1,3,4-oxadiazol-2-yl)benzamide] | 77 ± 13 | 9.9 ± 7 | 63 ± 7 | 12.6 ± 6 |
| CSc1cccc(C(=O)Nc2nnc(C3CCCCC3)o2)c1 [AC10011, N-(5-cyclohexyl-1,3,4-oxadiazol-2-yl)-3-(methylthio)benzamide] | 77 ± 8 | 6.6 ± 3 | 43 ± 6 | 61 ± 22 |
| CSc1cccc(C(=O)Nc2nnc(-c3cccs3)o2)c1 [AC10012, 3-(methylthio)-N-(5-(thiophen-2-yl)-1,3,4-oxadiazol-2-yl)benzamide] | 84 ± 5 | 11 ± 2 | 34 ± 1 | 66 ± 2 |
| CSc1cccc(C(=O)Nc2nnc(-c3ccc4c(c3)CCCC4)o2)c1 [AC10013, 3-(methylthio)-N-(5-(5,6,7,8-tetrahydronaphthalen-2-yl)-1,3,4-oxadiazol-2-yl)benzamide] | 97 ± 4 | 1.7 ± 0.7 | 68 ± 5 | 9.4 ± 2 |
| O=C(Nc1nnc(-c2ccc3c(c2)OCCO3)o1)c1ccc(Br)cc1 [AC10015, 4-bromo-N-(5-(2,3-dihydrobenzo[b][1,4]dioxin-6-yl)-1,3,4-oxadiazol-2-yl)benzamide] | 101 ± 0.4 | 3.4 ± 0.6 | 68 ± 0.5 | 23 ± 3 |
| COc1cccc(C(=O)Nc2nnc(-c3ccc4c(c3)CCCC4)o2)c1 [AC10016, 3-methoxy-N-(5-(5,6,7,8-tetrahydronaphthalen-2-yl)-1,3,4-oxadiazol-2-yl)benzamide] | 99 | 3.1 ± 0.4 | 55 ± 3 | 25 ± 4 |
| CC(C)Oc1ccc(C(=O)Nc2nnc(-c3cccs3)o2)cc1 [AC10017, 4-isopropoxy-N-(5-(thiophen-2-yl)-1,3,4-oxadiazol-2-yl)benzamide] | 84 ± 5 | 10.7 ± 2 | 35 ± 4 | 83 ± 22 |
| COc1ccc(C(=O)Nc2nnc(-c3cccs3)o2)cc1 [AC10018, 4-methoxy-N-(5-(thiophen-2-yl)-1,3,4-oxadiazol-2-yl)benzamide] | 80 ± 5 | 15 ± 2 | 10 ± 7 | – |
| CSc1ccc(C(=O)Nc2nnc(-c3ccc4c(c3)OCCO4)o2)cc1 [AC10020, 4-methylthio-N-(5-(2,3-dihydrobenzo[b][1,4]dioxin-6-yl)-1,3,4-oxadiazol-2-yl)benzamide] | 88 ± 5 | 9.5 ± 1 | 37 ± 9 | 76 ± 39 |
| O=C(Nc1nnc(C2CCCCC2)o1)c1cccc(C(F)(F)F)c1 [AC10021, N-(5-cyclohexyl-1,3,4-oxadiazol-2-yl)-3-(trifluoromethyl)benzamide] | 99 ± 1 | 6 ± 0.6 | 62 ± 8 | 33 ± 8 |
| O=C(Nc1nnc(-c2ccc3c(c2)OCCO3)o1)c1cccc(C(F)(F)F)c1 [AC10023, N-(5-(2,3-dihydrobenzo[b][1,4]dioxin-6-yl)-1,3,4-oxadiazol-2-yl)-3-(trifluoromethyl)benzamide] | 100 ± 0.2 | 5.1 ± 0.7 | 60 ± 8 | 32 ± 12 |
| Cc1ccc(C(=O)Nc2nnc(C3CCCCC3)o2)cc1C [AC10024, N-(5-cyclohexyl-1,3,4-oxadiazol-2-yl)-3,4-dimethylbenzamide] | 85 ± 4 | 8.1 ± 2 | 57 ± 7 | 44 ± 6 |
| CC(C)Oc1ccc(C(=O)Nc2nnc(C3CCCCC3)o2)cc1 [AC10025, N-(5-cyclohexyl-1,3,4-oxadiazol-2-yl)-4-isopropoxybenzamide] | 86 ± 7 | 10.1 ± 1 | 35 ± 8 | 53 ± 21 |
| O=C(Nc1nnc(-c2ccc3c(c2)CCCC3)o1)c1cccc(C(F)(F)F)c1 [AC10026, N-(5-(5,6,7,8-tetrahydronaphthalen-2-yl)-1,3,4-oxadiazol-2-yl)-3-(trifluoromethyl)benzamide] | 100 ± 1 | 1.6 ± 0.2 | 82 ± 7 | 7.9 ± 3 |
| O=C(Nc1nnc(-c2ccc(F)cc2)o1)c1cccc(C(F)(F)F)c1 [AC10028, N-(5-(4-fluorophenyl)-1,3,4-oxadiazol-2-yl)-3-(trifluoromethyl)benzamide] | 99 ± 2 | 5 ± 1 | 58 ± 1 | 29 ± 1 |
| Cc1ccc(C(=O)Nc2nnc(-c3ccc4c(c3)OCCO4)o2)cc1 [AC10029, N-(5-(2,3-dihydrobenzo[b][1,4]dioxin-6-yl)-1,3,4-oxadiazol-2-yl)-4-methylbenzamide] | 86 ± 11 | 11.5 ± 4 | 25 ± 6 | 83 ± 47 |
| Cc1ccc(C(=O)Nc2nnc(-c3ccc(F)cc3)o2)cc1C [AC10030, N-(5-(4-fluorophenyl)-1,3,4-oxadiazol-2-yl)-3,4-dimethylbenzamide] | 93 ± 4 | 6.5 ± 1 | 42 ± 4 | 46 ± 7 |
